Drawing on patent publication US12398121B2 (Nuvation Bio Inc., priority 2018, dated 2025), this text covers IC50 for 9 compounds.

The target in one test is Human recombinant PARP1 (Homo sapiens, UniProt P09874). Briefly: RBC HotSpot PARP1 radioisotope-based filter binding assay. Format: biochemical. The procedure:
The following methods are for evaluating the in vitro biology properties of the test articles. • a. RBC HotSpot Poly(ADP-ribose) Polymerases 1 (PARP1) and Poly(ADP-ribose) Polymerases 2 (PARP2) Assays: The assay principle is radioisotope-based filter binding assay where incorporation of radioisotope-labeled NAD^+ into the substrate captured on filter is detected after washout free NAD^+. Data were analyzed using Excel and GraphPad Prism software for IC50 curve fits. Each assay was conducted with PJ34 as a positive control. • i. PARP1 assay: Human recombinant PARP1 at a final concentration of 2.5 nM was combined with histone H4 (20 μM) and test articles at various concentrations in reaction buffer (50 mM Tris-HCL, pH 8.0, 50 mM NaCl, 10 mM MgCl2, 1 mM DTT, 1% DMSO, and 20 μg/mL activated DNA). The solution was inoculated for 20 min at room temperature and the reaction initiated by adding [adenylate-^32P]-Nicotinamide Adenine Dinucleotide, ^32P-NAD^+ at a final concentration of 10 μM. After incubation for 2 hour at room temperature, the reaction mixture was filtered and washed with 0.75% phosphoric acid for radioactivity detection. • ii. PARP2 assay: Human recombinant PARP2 at a final concentration of 2.5 nM was combined with histone H3 (20 μM) and test articles at various concentrations in reaction buffer (50 mM Tris-HCL, pH 8.0, 50 mM NaCl, 10 mM MgCl2, 1 mM DTT, 1% DMSO, and 20 μg/mL activated DNA). The solution was inoculated for 20 min at room temperature and the reaction was initiated by adding [adenylate-^32P]-Nicotinamide Adenine Dinucleotide, ^32P-NAD^+ at a final concentration of 10 μM. After incubation for 2 hour at room temperature, the reaction mixture was filtered and washed with 0.75% phosphoric acid for radioactivity detection. • b. AR binding assay: AR in LNCaP cytosol was used for determining the binding affinity of test articles and the reference compound—progesterone (Sigma, Cat: E2785, St. Louis, MO). IC50s were determined using 8 concentrations/compound. Cytosol was plated at 200 μg/well (100 μL) into a 96-well conical polypropylene plate (Agilent, Cat: 5042-1385, Santa Clara, CA) and mixed with 3 μL of test compound. After adding 100 μL of ^3H-methyltrienolone (PerkinElmer, Cat: NET590250UC, San Jose, CA), the plate was sealed and shaken at 300 rpm at 4° C. for 24 hours. Post incubation, 100 μL of radioligand adsorption buffer containing 10 mM Tris-HCl, pH 7.4; 1.5 mM EDTA; 1 mM DTT; 0.25% charcoal; 0.0025% dextran was added to individual well. Plate was shaken for 15 min at 4′C followed by centrifugation at 3000 rpm for 30 min at 4° C. 150 μL of supernatant was transferred into scint-tube (PerkinElmer, Cat: 6000192) and mixed with 2 mL of Ultima Gold Cocktail (PerkinElmer, Cat: 6013329). Radioactivity was counted using a TriCarb 2910 TR scintillation counter (PerkinElmer). Inhibition of the radioactivity by test articles were calculated using the equation below: % Inhibition=(1−(Assay well−Average_LC)/(Average_HC−Average_LC))×100%.

Another test deals with 22RV1 cells. Briefly: Cell proliferation assay (CellTiter Glo), 22RV1. The following applies: Homo sapiens, 22Rv1, 72 h, read-out: 22RV1 IC50. Format: cell-based. The procedure:
IC50 values were calculated and graphed using the model “log(inhibitor) vs. response—Variable slope” included in GraphPad Prism 5 (San Diego, CA). The Ki values were further calculated using the equation below where [L] was the radioligand concentration (1 nM) using in this study. Kd value was 0.332 nM. Ki=IC50/(1+[L]/Kd) c. AR transactivation: Human AR cloned into a CMV vector backbone was used for the transactivation study. HEK-293 cells were plated at 80,000 cells per well of a 24 well plate in DME+5% csFBS. Twenty four hours later, the cells were transfected using Lipofectamine (Invitrogen, Carlsbad, CA) with 0.25 μg GRE-LUC, 0.01 μg CMV-LUC (renilla luciferase) and 25 ng of the AR in OPTIMEM medium. The cells were treated 24 hrs after transfection with various ligands (10^−12 to 10^−5 M final concentrations) and luciferase assay were performed 48 hours after transfection. Firefly values were normalized to renilla luciferase values and the values were represented as relative light units (RLU). Agonist and antagonist assays for the test article were performed in the absence and in the combination with 0.1 nM R1881, respectively. Data were represented as EC50 (for agonists) and IC50 (for antagonists) obtained from four parameter logistics curve. Cell culture and proliferation assays: LNCaP, PC-3, 22RV1, MCF-7, HT-29, and HCT-116 cells were procured from American Type Culture Collection (ATCC). Cells were cultured in medium recommended by the ATCC. Cell culture medium was obtained from Fisher scientific (Waltham, MA) and serum was obtained from Hyclone (San Angelo, TX).
Cells were plated at varying density in the respective growth medium in 96 well plates. 24 hr later, cells were treated, in triplicate or quadruplicate, with test articles prepared in a range of concentrations by series dilution of DMSO stock solutions in growth medium and incubated for three to seven days. The number of viable 22RV1 and HT-29 cells was measured using CellTiter Glo assay (CTG, Promega, Madison, WI) after three days of treatment. The other types of cancer cells were re-treated at three or four days and the number of viable cells was measured using CTG assay after a total treatment time of six or seven days. Cell viability data were plotted using GraphPad Prism (GraphPad Software, Inc., San Diego, CA). In addition, a nonlinear regression model with a sigmoidal dose response and variable slope within GraphPad Prism was used to calculate the IC50 value of individual test articles. Additional cell proliferation assays: Other cancer cell lines are tested in a cell proliferation assay. For example, SK-OV-3 or OVCAR3 ovarian cancer cells are tested. Cells are cultured in medium recommended by the supplier (e.g., ATCC or JCRB Cell Bank), at 37° C. in a 5% CO2 environment. For the proliferation assay, cells are plated in the growth medium in 96 well plates. Seeding density is adjusted according to the cell type. 24 hr later, cells are treated, in triplicate or quadruplicate, with test articles prepared in a range of concentrations by series dilution of DMSO stock solutions in growth medium, and typically incubated for three to seven days, with test article-containing medium replaced after three or four days. The number of viable cells is measured using CellTiter Glo assay (CTG, Promega, Madison, WI) or similar. Cell viability data are plotted using GraphPad Prism (GraphPad Software, Inc., San Diego, CA). In addition, a nonlinear regression model with a sigmoidal dose response and variable slope within GraphPad Prism is used to calculate the IC50 value of individual test articles. Similarly, HEK-293 and HeLa calls can also be tested by methods known in the art. • f. Nuclear translocation: LNCaP cells are plated on coverslips in 24 well plates in growth medium. Twenty-four hours after plating, medium is changed to RPMI+1% csFBS and the cells are maintained in this medium for two days. Medium is replaced again and the cells are treated. […]
A general note: Cellular ATP, detected with luciferase, serves as a proxy for viable cell number.

[1] abbreviates: 2.5 nM enzyme, histone H4, 10 μM 32P-NAD+, read-out: PARP1 IC50.
[2] abbreviates: cell growth inhibition, three days of treatment.

SMILES strings stand for the structures. pIC50: −log10 of the molar value. Read-outs that look alike come from different tables or passages of the source.

Human recombinant PARP1, sequence (P09874 whole entry): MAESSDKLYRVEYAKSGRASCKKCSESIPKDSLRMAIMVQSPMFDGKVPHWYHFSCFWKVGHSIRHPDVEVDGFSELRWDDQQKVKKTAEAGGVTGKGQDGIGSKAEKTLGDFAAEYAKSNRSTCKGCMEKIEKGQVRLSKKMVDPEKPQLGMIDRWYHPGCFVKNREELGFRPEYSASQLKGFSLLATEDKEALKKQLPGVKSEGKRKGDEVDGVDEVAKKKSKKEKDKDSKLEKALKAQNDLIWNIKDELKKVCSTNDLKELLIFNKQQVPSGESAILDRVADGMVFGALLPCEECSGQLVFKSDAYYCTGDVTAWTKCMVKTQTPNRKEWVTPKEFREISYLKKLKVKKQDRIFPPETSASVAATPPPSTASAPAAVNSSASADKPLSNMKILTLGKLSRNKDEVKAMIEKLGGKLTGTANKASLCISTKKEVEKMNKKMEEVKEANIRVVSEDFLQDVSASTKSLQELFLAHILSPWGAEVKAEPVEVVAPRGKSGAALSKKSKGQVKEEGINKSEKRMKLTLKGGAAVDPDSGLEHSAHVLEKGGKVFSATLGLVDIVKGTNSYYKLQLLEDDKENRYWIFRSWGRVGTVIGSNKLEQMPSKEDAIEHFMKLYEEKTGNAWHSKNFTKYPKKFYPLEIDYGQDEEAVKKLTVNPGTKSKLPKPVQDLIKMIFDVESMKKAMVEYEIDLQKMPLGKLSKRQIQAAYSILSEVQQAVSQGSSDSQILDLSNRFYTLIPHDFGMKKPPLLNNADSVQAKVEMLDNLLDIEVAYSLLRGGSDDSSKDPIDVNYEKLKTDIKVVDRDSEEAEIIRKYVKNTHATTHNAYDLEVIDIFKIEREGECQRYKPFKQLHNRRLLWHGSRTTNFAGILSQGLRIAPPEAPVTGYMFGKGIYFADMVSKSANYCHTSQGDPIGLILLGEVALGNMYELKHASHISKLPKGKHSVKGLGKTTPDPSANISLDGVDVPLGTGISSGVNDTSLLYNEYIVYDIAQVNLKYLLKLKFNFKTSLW

As a reminder, the pIC50 is the negative decadic logarithm of the IC50, by convention in mol/L. Consider `C[C@](O)(CS(=O)(=O)c1ccc(NCCN2CCN(C(=O)c3cc(Cc4n[nH]c(=O)c5ccccc45)ccc3F)CC2)cc1)C(=O)Nc1ccc(C#N)c(C(F)(F)F)c1` [Compound 1.99, (R)-N-(4-cyano-3-(trifluoromethyl)phenyl)-3-(4-(2-(4-(2-fluoro-5-((4-oxo-3,4-dihydrophthalazin-1-yl)methyl)benzoyl)piperazin-1-yl)ethylamino)phenylsulfonyl)-2-hydroxy-2-methylpropanamide], for which the figures for the pIC50 at Human recombinant PARP1 and in the test with 22RV1 cells were 9.10 and 5.44, respectively.
For the compound `C[C@]12CCC(=O)C[C@@H]1CC[C@@H]1[C@@H]2CC[C@]2(C)[C@@H](OCCCCCC(=O)N3CCN(C(=O)c4cc(Cc5n[nH]c(=O)c6ccccc56)ccc4F)CC3)CC[C@@H]12` [Compound 1.2, 4-(3-(4-(6-(((5S,8R,9S,10S,13S,14S,17S)-10,13-dimethyl-3-oxohexadecahydro-1H-cyclopenta[a]phenanthren-17-yl)oxy)hexanoyl)piperazine-1-carbonyl)-4-fluorobenzyl)phthalazin-1(2H)-one], the pIC50 on Human recombinant PARP1 (setting [1]) was 8.52; in the test on 22RV1 cells, 6.40.
On to `C[C@]12CCC(F)(F)C[C@@H]1CC[C@@H]1[C@@H]2CC[C@]2(C)[C@@H](OCCCCCC(=O)N3CCN(C(=O)c4cc(Cc5n[nH]c(=O)c6ccccc56)ccc4F)CC3)CC[C@@H]12` [Compound 1.114, 4-(3-(4-(6-((5S,8R,9S,10S,13S,14S,17S)-3,3-difluoro-10,13-dimethylhexadecahydro-1H-cyclopenta[a]phenanthren-17-yloxy)hexanoyl)piperazine-1-carbonyl)-4-fluorobenzyl)phthalazin-1(2H)-one], for which the pIC50 was 7.55 at Human recombinant PARP1 (setting [1]) and 5.89 in the test on 22RV1 cells (setting [2]).
Regarding `C[C@](O)(CS(=O)(=O)c1ccc(NCCCCCC(=O)N2CCN(C(=O)c3cc(Cc4n[nH]c(=O)c5ccccc45)ccc3F)CC2)cc1)C(=O)Nc1ccc(C#N)c(C(F)(F)F)c1` [Compound 1.68, (R)-N-(4-cyano-3-(trifluoromethyl)phenyl)-3-(4-(6-(4-(2-fluoro-5-((4-oxo-3,4-dihydrophthalazin-1-yl)methyl)benzoyl)piperazin-1-yl)-6-oxohexylamino)phenylsulfonyl)-2-hydroxy-2-methylpropanamide], the pIC50 on Human recombinant PARP1 was 9.52; in the test with 22RV1 cells, 5.33.
The like results for `C[C@](O)(CS(=O)(=O)c1ccc(NCC(=O)N2CCN(C(=O)c3cc(Cc4n[nH]c(=O)c5ccccc45)ccc3F)CC2)cc1)C(=O)Nc1ccc(C#N)c(C(F)(F)F)c1` [Compound 1.98, (R)-N-(4-cyano-3-(trifluoromethyl)phenyl)-3-(4-(2-(4-(2-fluoro-5-((4-oxo-3,4-dihydrophthalazin-1-yl)methyl)benzoyl)piperazin-1-yl)-2-oxoethylamino)phenylsulfonyl)-2-hydroxy-2-methylpropanamide] were, in that order, 9.70 and 5.46.
`C[C@]12CCC(=O)C[C@@H]1CC[C@@H]1[C@@H]2CC[C@@]2(C)[C@H]1CC[C@@]2(O)CCCN1CCN(C(=O)c2cc(Cc3n[nH]c(=O)c4ccccc34)ccc2F)CC1` [Compound 1.119, 4-(4-fluoro-3-(4-(3-((5S,8R,9S,10S,13S,14S,17R)-17-hydroxy-10,13-dimethyl-3-oxohexadecahydro-1H-cyclopenta[a]phenanthren-17-yl)propyl)piperazine-1-carbonyl)benzyl)phthalazin-1(2H)-one]: the pIC50 is 8.80 on Human recombinant PARP1 (setting [1]) and 5.54 in the test on 22RV1 cells.
With `C[C@]12CCC(=O)C[C@@H]1CC[C@@H]1[C@@H]2CC[C@@]2(C)[C@H]1CC[C@@]2(O)CCC(=O)N1CCN(C(=O)c2cc(Cc3n[nH]c(=O)c4ccccc34)ccc2F)CC1` (stereo in doubt) [Compound 1.117, 4-(4-fluoro-3-(4-(3-((5S,8R,9S,10S,13S,14S,17R)-17-hydroxy-10,13-dimethyl-3-oxohexadecahydro-1H-cyclopenta[a]phenanthren-17-yl)propanoyl)piperazine-1-carbonyl)benzyl)phthalazin-1(2H)-one], the pIC50 on Human recombinant PARP1 (setting [1]) was 9.52; in the test on 22RV1 cells (setting [2]) it was 6.36.
With `CC1(C)C(=O)N(c2ccc(C#N)c(C(F)(F)F)c2)C(=S)N1c1ccc(C(=O)NCCCCCCNCc2ccc(-c3[nH]c4cc(F)cc5c4c3CCNC5=O)cc2)c(F)c1` [Compound 1.5, 4-(3-(4-cyano-3-(trifluoromethyl)phenyl)-5,5-dimethyl-4-oxo-2-thioxoimidazolidin-1-yl)-2-fluoro-N-(6-((4-(8-fluoro-1-oxo-2,3,4,6-tetrahydro-1H-azepino[5,4,3-cd]indol-5-yl)benzyl)amino)hexyl)benzamide], the pIC50 on Human recombinant PARP1 is 7.64; with 22RV1 cells it was 5.35.
Regarding `C[C@]12CCC(O)C[C@@H]1CC[C@@H]1[C@@H]2CC[C@]2(C)[C@@H](OCCCCCC(=O)N3CCN(C(=O)c4cc(Cc5n[nH]c(=O)c6ccccc56)ccc4F)CC3)CC[C@@H]12` (stereo partly drawn) [Compound 1.111, 4-(4-fluoro-3-(4-(6-((5S,8R,9S,10S,13S,14S,17S)-3-hydroxy-10,13-dimethylhexadecahydro-1H-cyclopenta[a]phenanthren-17-yloxy)hexanoyl)piperazine-1-carbonyl)benzyl)phthalazin-1(2H)-one], the pIC50 is 8.80 on Human recombinant PARP1 (setting [1]) and 6.05 in the test on 22RV1 cells (setting [2]).
